Read-outs that look alike come from different tables or passages of the source.
Target: T1, human apelin receptor (APJ, AGTRL-1, APLNR) (Homo sapiens, UniProt P35414)
T1 construct: host or cells: Chinese hamster ovary cells
T1 sequence (P35414 1-380): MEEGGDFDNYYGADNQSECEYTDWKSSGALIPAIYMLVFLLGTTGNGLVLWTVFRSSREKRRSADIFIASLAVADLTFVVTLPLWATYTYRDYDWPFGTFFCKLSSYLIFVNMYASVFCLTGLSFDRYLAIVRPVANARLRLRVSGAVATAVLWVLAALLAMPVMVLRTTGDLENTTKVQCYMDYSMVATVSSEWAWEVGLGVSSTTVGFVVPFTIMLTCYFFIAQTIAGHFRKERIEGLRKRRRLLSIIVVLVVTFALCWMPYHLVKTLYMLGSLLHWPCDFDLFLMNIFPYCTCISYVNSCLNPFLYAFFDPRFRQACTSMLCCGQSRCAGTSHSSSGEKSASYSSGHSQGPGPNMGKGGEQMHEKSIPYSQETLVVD
Assay: APJ cAMP cell-based assay (forskolin-stimulated CHO cells, enzyme fragment complementation)
Conditions: for Emax: CHO, 0.5 h, read-out: APJ cAMP % resp (efficacy)
Protocol: The assays disclosed herein were performed using cell lines from DiscoveRx, Inc.
Biological activity was determined in a cell-based assay. This assay detects activation of the receptor by reporting on intracellular cyclic adenosine monophosphate (cAMP) level. Chinese hamster ovary cells engineered to express a stably integrated human apelin receptor (APJ, AGTRL-1, APLNR), were plated into the wells of a microtiter plate. Cells were stimulated with forskolin to increase intracellular cAMP. Immediately following, compounds were added at a range of final concentrations 0.0-100 μM, in DMSO (not to exceed a final DMSO concentration of >1% v/v), and allowed to incubate with the cells for 0.5 h. At the end of the incubation, cells were lysed to stop APJ signaling, and cAMP was quantified using a commercially available assay kit that applies enzyme fragment complementation technology and bioluminescence, in a competitive ELISA format.
Compound efficacy (% resp) is reported as a percentage of the maximal apelin-13 response at 1 nM (control).

[1] = CHO cells expressing human APJ, forskolin-stimulated, 0.5 h incubation, 50% of control (apelin-13, 1 nM) response, read-out: APJ cAMP EC50
[2] = percentage of the maximal apelin-13 response at 1 nM (control)

Compound	EC50 [1] [nM]	Emax [2] [%]	Emax [%]	EC50 [nM]
COc1ccccc1-n1c(OCc2ccccc2)nnc1-c1cccs1 [Example 82, 3-(benzyloxy)-4-(2-methoxyphenyl)-5-(thiophen-2-yl)-4H-1,2,4-triazole]	> 10000	52	–	–
COc1ccccc1-n1c(SCc2ccccc2F)nnc1-c1cccs1 [Example 74, 3-(2-Fluoro-benzylsulfanyl)-4-(2-methoxy-phenyl)-5-thiophen-2-yl-4H-[1,2,4]triazole]	15000	80	–	–
Cc1ccc2nc(CSc3nnc(-c4cccs4)n3-c3ccccc3F)cc(=O)n2c1 [Example 24, 2-[4-(2-Fluoro-phenyl)-5-thiophen-2-yl-4H-[1,2,4]triazol-3-ylsulfanylmethyl]-7-methyl-pyrido[1,2-a]pyrimidin-4-one]	> 10000	–	–	–
COc1ccccc1-n1c(SCc2cc(=O)n3cc(C)ccc3n2)nnc1-c1ccc(N(C)C)cc1 [Example 6, 2-[5-(4-Dimethylamino-phenyl)-4-(2-methoxy-phenyl)-4H-[1,2,4]triazol-3-ylsulfanylmethyl]-7-methyl-pyrido[1,2-a]pyrimidin-4-one]	13600	176	–	–
COc1ccccc1-n1c(SCc2csc(-c3ccccc3)n2)nnc1-c1cccs1 [Example 31, 4-(2-Methoxy-phenyl)-3-(2-phenyl-thiazol-4-ylmethylsulfanyl)-5-thiophen-2-yl-4H-[1,2,4]triazole]	635	–	133	–
COc1ccccc1-n1c(SCc2coc(-c3ccc(Cl)cc3)n2)nnc1-c1cccs1 [Example 40, 3-[2-(4-Chloro-phenyl)-oxazol-4-ylmethylsulfanyl]-4-(2-methoxy-phenyl)-5-thiophen-2-yl-4H-[1,2,4]triazole]	3340	58	–	–
COc1ccccc1-n1c(SCc2cc(=O)n3cc(F)ccc3n2)nnc1-c1cccs1 [Example 49, 7-Fluoro-2-[4-(2-methoxy-phenyl)-5-thiophen-2-yl-4H-[1,2,4]triazol-3-ylsulfanylmethyl]-pyrido[1,2-a]pyrimidin-4-one]	23.4	107	–	–
COc1ccc(-c2nc(CSc3nnc(-c4cccs4)n3-c3ccccc3OC)co2)cc1 [Example 37, 4-(2-Methoxy-phenyl)-3-[2-(4-methoxy-phenyl)-oxazol-4-ylmethylsulfanyl]-5-thiophen-2-yl-4H-[1,2,4]triazole]	3090	138	–	–
COc1ccccc1-n1c(SCc2nc(=O)c3ccc(Cl)cc3[nH]2)nnc1-c1cccs1 [Example 66, 7-Chloro-2-[4-(2-methoxy-phenyl)-5-thiophen-2-yl-4H-[1,2,4]triazol-3-ylsulfanylmethyl]-1H-quinazolin-4-one]	482	87	–	–
COc1ccc(-n2c(SCc3cc(=O)n4cc(C)ccc4n3)nnc2-c2cccs2)cn1 [Example 30]	> 10000	31	–	–
COc1ccccc1-n1c(-c2cccs2)cnc1SCc1cc(=O)n2cc(C)ccc2n1 [Example 79, 2-[1-(2-Methoxy-phenyl)-5-thiophen-2-yl-1H-imidazol-2-ylsulfanylmethyl]-7-methyl-pyrido[1,2-a]pyrimidin-4-one]	1920	–	54	–
COc1ccccc1-n1c(SCc2cc(=O)n3ccc(C)cc3n2)nnc1-c1cccs1 [Example 51, 2-[4-(2-Methoxy-phenyl)-5-thiophen-2-yl-4H-[1,2,4]triazol-3-ylsulfanylmethyl]-8-methyl-pyrido[1,2-a]pyrimidin-4-one]	451	125	–	–
COc1ccccc1-n1c(SCc2cc(=O)n3cc(C)ccc3n2)nnc1-c1nccs1 [Example 14, 2-[4-(2-Methoxy-phenyl)-5-thiazol-2-yl-4H-[1,2,4]triazol-3-ylsulfanylmethyl]-7-methyl-pyrido[1,2-a]pyrimidin-4-one]	772	105	–	–
COc1ccccc1-n1c(SCc2nc(=O)c3cc(C)ccc3[nH]2)nnc1-c1cccs1 [Example 59, 2-[4-(2-Methoxy-phenyl)-5-thiophen-2-yl-4H-[1,2,4]triazol-3-ylsulfanylmethyl]-6-methyl-1H-quinazolin-4-one]	42	121	–	–
COc1ccccc1-n1c(SCc2csc(-c3ccc(Cl)cc3)n2)nnc1-c1cccs1 [Example 35, 3-[2-(4-Chloro-phenyl)-thiazol-4-ylmethylsulfanyl]-4-(2-methoxy-phenyl)-5-thiophen-2-yl-4H-[1,2,4]triazole]	> 10000	90	–	–
COc1ccccc1-n1c(SCc2nc(=O)c3cccc(F)c3[nH]2)nnc1-c1cccs1 [Example 57, 8-Fluoro-2-[4-(2-methoxy-phenyl)-5-thiophen-2-yl-4H-[1,2,4]triazol-3-ylsulfanylmethyl]-1H-quinazolin-4-one]	140	–	106	–
COc1ccccc1-n1c(SCc2nc(=O)c3cc(Cl)ccc3[nH]2)nnc1-c1cccs1 [Example 62, 6-Chloro-2-[4-(2-methoxy-phenyl)-5-thiophen-2-yl-4H-[1,2,4]triazol-3-ylsulfanylmethyl]-1H-quinazolin-4-one]	53.6	116	–	–
COc1cccc(-n2c(SCc3cc(=O)n4cc(C)ccc4n3)nnc2-c2cccs2)c1 [Example 22, 2-[4-(3-Methoxy-phenyl)-5-thiophen-2-yl-4H-[1,2,4]triazol-3-ylsulfanylmethyl]-7-methyl-pyrido[1,2-a]pyrimidin-4-one]	1240	134	–	–
Cc1cccc(-n2c(SCc3cc(=O)n4cc(C)ccc4n3)nnc2-c2cccs2)c1 [Example 21, 7-Methyl-2-(5-thiophen-2-yl-4-m-tolyl-4H-[1,2,4]triazol-3-ylsulfanylmethyl)-pyrido[1,2-a]pyrimidin-4-one]	2370	113	–	–
COc1ccccc1-n1c(SCc2coc(-c3ccc(F)cc3)n2)nnc1-c1cccs1 [Example 39, 3-[2-(4-Fluoro-phenyl)-oxazol-4-ylmethylsulfanyl]-4-(2-methoxy-phenyl)-5-thiophen-2-yl-4H-[1,2,4]triazole]	105	93	–	–
COc1ccccc1-n1c(SCc2ccc3ccccc3n2)nnc1-c1cccs1 [Example 68, 2-[4-(2-Methoxy-phenyl)-5-thiophen-2-yl-4H-[1,2,4]triazol-3-ylsulfanylmethyl]-quinoline]	211	79	–	–
COc1ccccc1-n1c(SCc2nc(=O)c3ccc(F)cc3[nH]2)nnc1-c1cccs1 [Example 63, 7-Fluoro-2-[4-(2-methoxy-phenyl)-5-thiophen-2-yl-4H-[1,2,4]triazol-3-ylsulfanylmethyl]-1H-quinazolin-4-one]	125	108	–	–
COc1ccccc1-n1c(OCc2cc(=O)n3cc(C)ccc3n2)nnc1-c1cccs1 [Example 83, 2-(((4-(2-methoxyphenyl)-5-(thiophen-2-yl)-4H-1,2,4-triazol-3-yl)oxy)methyl)-7-methyl-4H-pyrido[1,2-a]pyrimidin-4-one]	45	52	–	–
COc1ccccc1-n1c(SCc2cc(=O)n3cc(C)ccc3n2)nnc1-c1ccc(Br)o1 [Example 10, 2-[5-(5-Bromo-furan-2-yl)-4-(2-methoxy-phenyl)-4H-[1,2,4]triazol-3-ylsulfanylmethyl]-7-methyl-pyrido[1,2-a]pyrimidin-4-one]	18.2	150	–	–
COc1ccccc1-n1c(SCc2ccncn2)nnc1-c1cccs1 [Example 78, 4-[4-(2-Methoxy-phenyl)-5-thiophen-2-yl-4H-[1,2,4]triazol-3-ylsulfanylmethyl]-pyrimidine]	–	–	50	> 10000
COc1ccccc1-n1c(SCc2cc(=O)n3cc(C)ccc3n2)nnc1-c1ccc(C)cc1 [Example 5, 2-[4-(2-Methoxy-phenyl)-5-p-tolyl-4H-[1,2,4]triazol-3-ylsulfanylmethyl]-7-methyl-pyrido[1,2-a]pyrimidin-4-one]	1510	126	–	–
COc1ccccc1-n1c(SCc2cc(=O)n3cc(C)ccc3n2)nnc1-c1ccc(Cl)s1 [Example 9, 2-[5-(5-Chloro-thiophen-2-yl)-4-(2-methoxy-phenyl)-4H-[1,2,4]triazol-3-ylsulfanylmethyl]-7-methyl-pyrido[1,2-a]pyrimidin-4-one]	455	136	–	–
COc1ccccc1-n1c(SCc2cc(=O)n3cc(C)ccc3n2)nnc1-c1ccc([N+](=O)[O-])cc1 [Example 7, 2-[4-(2-Methoxy-phenyl)-5-(4-nitro-phenyl)-4H-[1,2,4]triazol-3-ylsulfanylmethyl]-7-methyl-pyrido[1,2-a]pyrimidin-4-one]	6630	51	–	–
COc1ccccc1-n1c(SCc2cc(=O)n3cc(C)ccc3n2)nnc1-c1ccsc1 [Example 17, 2-[4-(2-Methoxy-phenyl)-5-thiophen-3-yl-4H-[1,2,4]triazol-3-ylsulfanylmethyl]-7-methyl-pyrido[1,2-a]pyrimidin-4-one]	90	109	–	–

Source: US12319684B2 (Sanford Burnham Prebys Medical Discovery Institute, priority 2014, dated 2025)
